Broadly, the AC50 is the concentration at which the activity in the assay is half-maximal. Read a high AC50 as weaker potency.

Sequence of PKM2 (P14618 whole entry): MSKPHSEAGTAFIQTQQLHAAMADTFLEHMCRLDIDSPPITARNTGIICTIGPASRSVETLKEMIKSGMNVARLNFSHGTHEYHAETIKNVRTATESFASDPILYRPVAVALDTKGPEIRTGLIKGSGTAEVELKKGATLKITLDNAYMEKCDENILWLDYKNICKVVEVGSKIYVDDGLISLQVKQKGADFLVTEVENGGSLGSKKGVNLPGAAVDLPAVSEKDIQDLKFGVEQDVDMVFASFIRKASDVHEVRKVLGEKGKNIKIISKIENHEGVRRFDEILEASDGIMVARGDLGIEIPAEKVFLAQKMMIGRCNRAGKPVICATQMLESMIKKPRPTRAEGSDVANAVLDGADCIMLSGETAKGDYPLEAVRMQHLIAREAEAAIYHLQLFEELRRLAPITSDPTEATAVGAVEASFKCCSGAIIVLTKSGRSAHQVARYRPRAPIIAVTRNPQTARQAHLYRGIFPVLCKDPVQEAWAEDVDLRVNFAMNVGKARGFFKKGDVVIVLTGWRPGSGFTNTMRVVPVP

This experiment addresses PKM2 (Homo sapiens, UniProt P14618). Put plainly: PKM2 Assay (activation; LDH-coupled, NADH absorbance at 340 nm). It is filed as biochemical. To be noted: PKM2 50 ng/well, ADP 0.7 mM, PEP 0.15 mM, no FBP in Reaction Mix. Here is the method:
• PKM2 stock enzyme solution was diluted in Reaction Buffer • 2 μL of compound was added into each well first, and then 180 μL of the Reaction Mix was added. • Reaction mixture with compound (without ADP) were incubated for 30 minutes at 4° C. • Plates were re-equilibrated to room temperature prior to adding 20 μL ADP to initiate the reaction. • Reaction progress was measured as changes in absorbance at 340 nm wavelength at room temperature (25° C.) Reaction Mix: PKM2 (50 ng/well), ADP (0.7 mM), PEP (0.15 mM), NADH (180 μM), LDH (2 units) in Reaction Buffer Reaction Buffer: 100 mM KCl, 50 mM Tris pH 7.5, 5 mM MgCl2, 1 mM DTT, 0.03% BSA.
`Cc1cc2oc(=O)n(C)c2cc1S(=O)(=O)Nc1ccccc1F` yielded an AC50 of 1 to 10 µM. The value for `Cn1c(=O)sc2ccc(NS(=O)(=O)c3ccccc3)cc21` was 10 to 50 µM; that for `Cc1cc(C)cc(NS(=O)(=O)c2ccc3oc(=O)n(C)c3c2)c1` was less than 1 µM; that for `Cn1c(=O)oc2cc(S(=O)(=O)Nc3cccc4ccccc34)ccc21` was 1 to 10 µM. The value for `Cc1cc(C)cc(NS(=O)(=O)c2ccc3c(c2)oc(=O)n3Cc2ccccc2)c1` was 1 to 10 µM.

Take `Cn1c(=O)oc2cc(F)c(NS(=O)(=O)c3c(F)cccc3F)cc21`: the AC50 is greater than 100 µM. The value for `CN(Cc1ccccc1)S(=O)(=O)c1ccc2c(c1)oc(=O)n2C` was 1 to 10 µM; that for `COc1ccc(Cl)cc1NS(=O)(=O)c1ccc2c(c1)oc(=O)n2C` was 1 to 10 µM.

For `Cc1cc2c(cc1S(=O)(=O)N1CCN(C(=O)COc3ccc(-n4cnnn4)cc3)CC1)oc(=O)n2C`, the AC50 fell in the range of 10 to 50 µM. `Cn1c(=O)oc2cc(F)c(S(=O)(=O)N3CCN(S(=O)(=O)c4c(F)cccc4F)CC3)cc21` yielded an AC50 of less than 1 µM. The value for `Cc1cc2sc(=O)sc2cc1S(=O)(=O)NC1CCCCC1` was 10 to 50 µM. The value for `Cc1cc2oc(=O)n(C)c2cc1S(=O)(=O)Nc1cccc(Cl)c1` was less than 1 µM; that for `Cc1cc2c(cc1S(=O)(=O)Nc1ccccc1Cl)oc(=O)n2C` was 1 to 10 µM. The value for `Cc1cc2oc(=O)n(C)c2cc1S(=O)(=O)Nc1ccccc1Cl` was 1 to 10 µM; that for `Cc1cc(NS(=O)(=O)c2cc(C)c3c(c2)oc(=O)n3CCN2CCOCC2)ccc1F` was 1 to 10 µM; that for `COc1ccc(Cl)cc1S(=O)(=O)N1CCCN(S(=O)(=O)c2ccc3c(c2)sc(=O)n3C)CC1` was less than 1 µM. Compound `COc1ccc(Cl)cc1S(=O)(=O)Nc1ccc(NS(=O)(=O)c2cc3c(cc2C)oc(=O)n3C)cc1` gave an AC50 greater than 100 µM.

Compound `COc1ccc(Cl)cc1S(=O)(=O)Nc1cc2c(cc1Cl)oc(=O)n2C` gave an AC50 of 1 to 10 µM. Turning to `Cc1cc2oc(=O)n(C)c2cc1NS(=O)(=O)c1cccc(Cl)c1`, the AC50 fell in the range of 10 to 50 µM.

The compound `Cc1cc2oc(=O)n(C)c2cc1S(=O)(=O)Nc1ccc(Cl)c(Cl)c1` came in with an AC50 of 1 to 10 µM. In turn, `Cn1c(=O)oc2cc(S(=O)(=O)N3CCN(S(=O)(=O)c4c(F)cccc4F)CC3)ccc21` gave an AC50 of 1 to 10 µM. The compound `Cc1cc2oc(=O)sc2cc1NS(=O)(=O)c1cccs1` yielded an AC50 of 10 to 50 µM. The value for `Cn1c(=O)sc2cc(S(=O)(=O)Nc3cccc4ccccc34)ccc21` was 1 to 10 µM; that for `Cn1c(=O)oc2cc(S(=O)(=O)Nc3ccc4ncn(S(=O)(=O)c5cccc6c5oc(=O)n6C)c4c3)ccc21` was 1 to 10 µM; that for `COCCn1c(=O)oc2cc(S(=O)(=O)Nc3ccc(F)c(C)c3)ccc21` was less than 1 µM. The value for `COc1ccc(Cl)cc1NS(=O)(=O)c1cc2c(cc1Cl)oc(=O)n2C` was 1 to 10 µM.

(Values after patent US8501953B2, “PKM2 modulators for use in the treatment of cancer” (Agios Pharmaceuticals, Inc, priority 2009, dated 2013).)
